The values that follow come from patent US9889180B2, “Method of treating cancer” (Agency for Science, Technology and Research, priority 2012, dated 2018).

In data set [1] the test system is DU145 xenograft tumor. The experiment in a line: DU145 xenograft tumor growth in male athymic nude mice. The settings on record: IFN-γ 1×10^7 IU/kg i.p. daily, DZNep 1 mg/kg s.c. every alternating day, 38 days. The format is in vivo. The procedure:
For in vivo evaluation of DZNep and IFN-γ treatment, the experiments were conducted in compliance with animal protocol approved by the ASTAR-Biopolis Institutional Animal Care and Use Committee (IACUC) of Singapore. DU145 cells were subcutaneously injected into 6-8 week male nude mice at 5×10^6 cells, followed by treatment with vehicle, IFN-γ (1×10^7 IU/kg) alone, DZNep (1 mg/kg) alone or combined DZNep (1 mg/kg) with IFN-γ (1×10^7IU/kg). IFN-γ was administered by intraperitoneal injection daily and DZNep by subcutaneous injection on every alternating day over a duration of 38 days after average tumor size reached around 150 mm^3. Tumors were measured by vernier calliper at least twice per week and tumors volume was calculated with formula: V=W*W*L/2. Each xenograft treatment arm comprised of 5-8 mice. Differences among groups and treatments were determined by ANOVA followed by t tests. (***p<0.001, n.s=not significant) Error bars represent means±s.e.m

Data set [2] relates to EZH2 and IFNGR1 expression. The experiment in a line: Immunohistochemistry of EZH2 and IFNGR1 in DU145 xenograft tumors. The format is in vivo. The settings on record: tumors resected from treated mice. The procedure:
Tissue microarray slides (PR956, BR1503b, LC2083, and LV6161) were purchased from US Biomax. Staining and image analysis of tissue microarray were performed by Histopathology Department from Institute of Molecular and Cell Biology, Agency for Science, Technology, and Research (A*STAR), Singapore. Anti-EZH2 (D2C9 XP) antibody was purchased from Cell Signaling, anti-MYC (9E10) and anti-IFNGR1 antibody (GIR-94) was purchased from Santa Cruz Biotechnology. Briefly, five-micron paraffin-embedded tissue sections cut, deparaffinized, rehydrated, antigens were retrieved by Proteinase K solution; sections were then incubated in 3% H2O2 at room temperature to block endogenous peroxidase. Slides were incubated in primary antibody against EZH2 or IFNGR1 for 45 mins followed by 30 min incubation with anti-mouse Labelled Polymer (Dako, Calif.). Specificity of the immunostaining was determined by the inclusion of isotype-specific IgG as negative control. […]
For in vivo evaluation of DZNep and IFN-γ treatment, the experiments were conducted in compliance with animal protocol approved by the ASTAR-Biopolis Institutional Animal Care and Use Committee (IACUC) of Singapore. […] Tumors were measured by vernier calliper at least twice per week and tumors volume was calculated with formula: V=W*W*L/2. […] Differences among groups and treatments were determined by ANOVA followed by t tests. […]

For data set [3], the target named is T1, EZH2/PRC2 and H3K27me3 (Homo sapiens, UniProt Q15910).
T1 construct: endogenous in cells; host or cells: DU145 (named by the earlier reading of the assay)
T1 sequence (Q15910 whole entry): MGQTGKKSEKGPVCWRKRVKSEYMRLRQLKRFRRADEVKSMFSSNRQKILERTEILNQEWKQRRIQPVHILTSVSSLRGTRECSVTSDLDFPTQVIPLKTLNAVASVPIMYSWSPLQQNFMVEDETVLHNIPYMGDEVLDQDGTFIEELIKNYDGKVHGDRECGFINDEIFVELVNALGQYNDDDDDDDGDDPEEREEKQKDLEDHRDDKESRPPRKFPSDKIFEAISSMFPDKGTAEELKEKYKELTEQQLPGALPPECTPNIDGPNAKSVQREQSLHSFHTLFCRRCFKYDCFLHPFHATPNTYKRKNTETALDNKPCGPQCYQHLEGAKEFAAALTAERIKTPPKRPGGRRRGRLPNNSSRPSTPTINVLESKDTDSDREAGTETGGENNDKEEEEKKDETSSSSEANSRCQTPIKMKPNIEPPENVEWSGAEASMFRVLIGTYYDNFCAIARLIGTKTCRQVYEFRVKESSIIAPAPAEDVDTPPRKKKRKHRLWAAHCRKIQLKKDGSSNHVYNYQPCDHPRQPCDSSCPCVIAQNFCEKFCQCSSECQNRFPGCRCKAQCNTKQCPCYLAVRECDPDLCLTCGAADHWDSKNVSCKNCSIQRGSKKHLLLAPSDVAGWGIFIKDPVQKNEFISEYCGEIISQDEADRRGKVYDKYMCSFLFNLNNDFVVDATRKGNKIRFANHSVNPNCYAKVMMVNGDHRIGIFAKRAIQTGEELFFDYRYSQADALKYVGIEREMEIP
T1 sequence (O75530 whole entry partner): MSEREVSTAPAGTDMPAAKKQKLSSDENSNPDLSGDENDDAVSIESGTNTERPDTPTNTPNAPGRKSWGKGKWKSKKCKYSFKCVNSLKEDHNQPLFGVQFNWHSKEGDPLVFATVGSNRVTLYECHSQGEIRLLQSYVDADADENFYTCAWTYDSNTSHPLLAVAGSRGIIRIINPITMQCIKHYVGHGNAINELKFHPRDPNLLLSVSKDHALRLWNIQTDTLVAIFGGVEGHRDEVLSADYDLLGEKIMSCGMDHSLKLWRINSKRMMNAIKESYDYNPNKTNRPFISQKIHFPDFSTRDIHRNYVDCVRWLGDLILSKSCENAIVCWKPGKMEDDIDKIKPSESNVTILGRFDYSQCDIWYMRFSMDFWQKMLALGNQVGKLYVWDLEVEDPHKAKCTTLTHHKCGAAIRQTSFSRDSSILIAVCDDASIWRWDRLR
T1 sequence (Q15022 whole entry partner): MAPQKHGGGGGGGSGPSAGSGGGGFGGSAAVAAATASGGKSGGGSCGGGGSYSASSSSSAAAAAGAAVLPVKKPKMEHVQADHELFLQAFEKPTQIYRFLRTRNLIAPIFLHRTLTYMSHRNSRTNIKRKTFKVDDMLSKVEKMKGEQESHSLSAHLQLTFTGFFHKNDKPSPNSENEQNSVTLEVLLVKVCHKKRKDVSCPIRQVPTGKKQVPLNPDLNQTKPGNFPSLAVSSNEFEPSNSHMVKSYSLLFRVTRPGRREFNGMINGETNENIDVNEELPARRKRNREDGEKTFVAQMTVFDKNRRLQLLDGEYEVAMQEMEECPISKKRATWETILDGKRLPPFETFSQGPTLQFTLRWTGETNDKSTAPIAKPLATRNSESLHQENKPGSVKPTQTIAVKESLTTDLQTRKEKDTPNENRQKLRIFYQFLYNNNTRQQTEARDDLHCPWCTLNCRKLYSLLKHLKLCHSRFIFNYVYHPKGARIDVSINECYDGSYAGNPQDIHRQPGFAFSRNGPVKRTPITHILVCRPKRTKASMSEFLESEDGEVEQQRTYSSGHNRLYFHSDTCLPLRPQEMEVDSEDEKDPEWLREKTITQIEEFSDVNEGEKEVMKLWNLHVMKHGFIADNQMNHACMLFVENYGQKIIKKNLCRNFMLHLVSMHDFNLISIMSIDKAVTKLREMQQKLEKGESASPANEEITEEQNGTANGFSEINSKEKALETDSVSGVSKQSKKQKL
The experiment in a line: Western blot of PRC2 proteins and H3K27me3 in DU145 cells. It counts as cell-based. To be noted: DZNep. The procedure:
Western Blotting was performed as described previously. Briefly, Cells were scraped, collected, and lysed in RIPA buffer. To release histones from chromatin, cell lysates were further sonicated for 15 sec using a XL2000 Microson Ultrasonic Processor (Misonix). Equal amounts of protein (30 μg) were separated on SDS-polyacrylamide gels and transferred to PVDF membranes. The blots were probed with antibodies against EED (07-368), SUZ12 (07-379), trimethylated H3-K27 (07-449), Acetyl-Histone H3 (06-599), which were purchased from Upstate Biotechnology. IFNGR1 (GIR-94) and anti-IFI16 (1G7) were purchased from Santa Cruz. EZH2 phospho S21 (00388) was purchased from Bethyl Laboratories. EZH2 (AC22), P110α PI3K, p-AKT (T308), p-AKT (S473), pSTAT1Y701, total STAT1, Histone H3 (3H1), Beclin-1 and cleaved PARP were purchased from Cell Signaling. Myc and Actin were purchased from Roche Applied Science and Sigma-Aldrich, respectively.
Background: Immunoblotting shows a protein as a band on a membrane.

For data set [4], the system named is IFNGR1 promoter. Description: ChIP analysis of EZH2 and H3K27me3 enrichments at IFNGR1 in DU145 cells. It counts as cell-based, human. To be noted: DZNep (2.5 μM), 3 days. The procedure: ChIP assays were performed as described previously. […] The immunoprecipitated DNA was quantified by quantitative real-time PCR using KAPA SyBr Fast qPCR kit (KAPA biosystems) with the specific ChIP primers as listed in the Table 4. Quantification of binding to the promoter was defined as the percentage of the whole cell lysate input DNA. The fold enrichment was derived by normalizing the specific antibody enriched against the IgG-enriched chromatin. CNR1 serves a positive control and Actin is a negative control. Significance of target genes was assessed relative to Actin level.

In data set [5] the test system is RWPE1-PI3K cells. Description: FACS cell death analysis in RWPE1-PI3K cells. It counts as cell-based, human. To be noted: DZNep (2.5 μM) for 3 days with increasing doses of IFN-γ. The procedure:
For the assessment of cell death, cells were harvested in 70% ethanol. Fixed cells were stained with Propidium Iodide (P.I) (50 μg/mL). The stained cells were analyzed for DNA content by FACS in a FACSCalibur (Becton Dickinson Instrument). % of cell death was defined as the sub-G1 population quantified using the CellQuest software (Becton Dickinson). The percentage of dead cells or sub-G1 cells was calculated by comparing the results of each experiment to the results from DMSO-treated cells. Each assay was repeated a minimum of three times, with results reported as means+s.e.m.

Data set [6] concerns PC3-derived prostatospheres. The experiment in a line: Prostatosphere formation assay, PC3. The format is cell-based, human. To be noted: EZH2 knockdown in combination with IFN-γ, 7 days.
The test system of data set [7] is IFN responsive genes (MX1, IRF1, IFI16). The experiment in a line: qRT-PCR of IFN responsive genes in PC3 cells. It counts as cell-based, human. The settings on record: in response to IFN-γ stimulation. The procedure: Target-specific siRNA and non-targeting control siRNA were purchased from 1st Base Singapore and Integrated DNA technologies (IDT) with the following target sequences respectively: EZH2 siRNA: 5′-GACUCUGAAUGCAGUUGCU-3′ (SEQ ID NO: 1); MYC siRNA: 5′-[…]-3′ (SEQ ID NO:2). All siRNA were designed by 1st Base Singapore and IDT respectively. For transfection, 30 nM siRNAs were used to transfect cells. 48 h after transfection cell pellets were collected and subjected indicated assays.
Total RNA was isolated by using Trizol (Invitrogen) and purified with the RNeasy Mini Kit (Qiagen). The microarray hybridization was performed using the Illumina Gene Expression Sentrix BeadChip HumanRef-8_V3, and data analysis was performed by GeneSpring software from Agilent Technologies as described previously. The analyzed gene sets by GeneSpring were next subjected to Ingenuity Pathway Analysis (IPA) for gene ontology (GO) analysis. Reverse transcription and quantitative PCR assays were performed using High Capacity cDNA Archive kit and KAPA SyBr Fast qPCR kit (KAPA biosystems). For quantification of mRNA levels, 18S level was used as an internal control. All reactions were analyzed in an Applied Biosystems PRISM 7500 Fast Real-Time PCR system in 96-well plate format.
On the technique in general: Real-time PCR tracks product formation cycle by cycle.

As for `Cl.Nc1nccc2c1ncn2[C@@H]1C=C(CO)[C@@H](O)[C@H]1O` [DZNep, (−)-1-[(1R,4R,5S)-3-(Hydroxymethyl)-4,5-dihydroxy-2-cyclopenten-1-yl]4-aminoimidazo[4,5-c]pyridine hydrochloride], in data set [1], the xenograft tumor growth entry is recorded as “slowed down the tumor growth”. In data set [2], the “EZH2 expression in tumors (IHC)” value is recorded as “downregulation of EZH2” and the “IFNGR1 expression in tumors (IHC)” value was “upregulation of IFNGR1”. In data set [3], the “PRC2 protein levels (EZH2, EED, SUZ12)” value was “depleted EZH2, as well as the other two PRC2 proteins EED and SUZ12”; the “depletion of H3K27me3” value is “much lower efficiency in depleting H3K27me3”. In addition, the “EZH2 and H3K27me3 enrichments at the IFNGR1 gene promoter” value in data set [4] was “reduced both EZH2 and H3K27me3 enrichments”. For the same compound, in data set [5], the “induction of apoptosis / cell death” value is given as “but not RWPE1-PI3K cells”.

As to “EZH2 knockdown: EZH2 siRNA: 5′-GACUCUGAAUGCAGUUGCU-3′ (SEQ ID NO: 1) (other strand not given here)”, the “tumorsphere formation after knockdown” value in data set [6] is given as “efficiently inhibited the tumorsphere formation”. Further, the “activation of IFN genes after knockdown” value in data set [7] is listed as “robust activation of IFN genes”.
